According to patent US20260317384A1, “SMALL MOLECULE HUMANIN MIMETICS” (The Regents of the University Of California, priority 2023, published 2026):
Peptide text beside a SMILES is read from it. * marks the point of attachment. Cbz = O=C(OCc1ccccc1)*

What was measured:
gp130 receptor = target: T1, gp130 receptor (Homo sapiens, UniProt P40189); assay: p-gp130 (p-Tyr) ELISA, HTS validation and dose response in U87-MG cells; assay type: cell-based; conditions: for p-gp130 (p-Tyr) dose response activity: dose response of validated hits, FIG. 4; for activation of gp130 receptor / increase of p-gp130: validation testing, truncated humanin peptides
T1 construct: express more than 10 times more endogenous gp130; endogenous in cells; host or cells: U87-MG
T1 sequence (P40189 23-918): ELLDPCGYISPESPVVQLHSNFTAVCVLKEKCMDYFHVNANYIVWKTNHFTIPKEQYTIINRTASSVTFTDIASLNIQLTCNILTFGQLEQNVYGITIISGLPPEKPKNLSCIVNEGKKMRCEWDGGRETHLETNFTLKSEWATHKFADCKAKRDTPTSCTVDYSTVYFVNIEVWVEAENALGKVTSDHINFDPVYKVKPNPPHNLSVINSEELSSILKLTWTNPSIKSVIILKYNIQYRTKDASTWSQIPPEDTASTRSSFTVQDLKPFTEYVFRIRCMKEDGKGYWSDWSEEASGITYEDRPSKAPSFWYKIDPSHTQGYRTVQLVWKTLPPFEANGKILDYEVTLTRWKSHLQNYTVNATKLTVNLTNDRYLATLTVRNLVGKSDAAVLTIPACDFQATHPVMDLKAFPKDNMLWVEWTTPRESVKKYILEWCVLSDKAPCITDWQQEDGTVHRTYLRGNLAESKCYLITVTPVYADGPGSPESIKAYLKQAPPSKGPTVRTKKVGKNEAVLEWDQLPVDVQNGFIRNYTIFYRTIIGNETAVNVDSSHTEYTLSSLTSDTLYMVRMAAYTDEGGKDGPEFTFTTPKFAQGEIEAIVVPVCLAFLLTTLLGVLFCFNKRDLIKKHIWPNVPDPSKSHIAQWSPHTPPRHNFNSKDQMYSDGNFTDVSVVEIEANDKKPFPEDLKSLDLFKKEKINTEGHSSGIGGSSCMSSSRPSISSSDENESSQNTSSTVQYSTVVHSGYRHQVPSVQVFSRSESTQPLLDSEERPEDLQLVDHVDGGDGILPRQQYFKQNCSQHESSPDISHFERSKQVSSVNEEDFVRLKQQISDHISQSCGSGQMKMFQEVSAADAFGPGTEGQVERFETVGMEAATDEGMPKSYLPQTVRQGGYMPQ
From the text: (§1) An ELISA assay for the evaluation of the p-gp130 levels was developed. This was a commercial ELISA—DuoSet ELISA from R&D systems (cat #DYC3407-2) and detected the tyrosine phosphorylation of gp130. […] In addition, a commercially available p-AKT (1,2,3) AlphaLISA kit was used (PE cat #ALSU-PAKT-B-HV) for the HTS assay.
(§2) Small molecules that act as HN mimetics represent a new class of AD therapeutics. Through screening, validated hits that increase both p-gp-130 and p-Akt levels were identified. Human glioblastoma cells were used, U87-MG. Several hits that enhance p-gp 130 were identified as well as several compounds that can increase p-AKT (FIG. 3).
(§3) Into a 96 well plate was added 99 μL of warm DMEM/F12 without FBS, then 1 uL of compounds at 1 mM were loaded into the96 well plate. These generated the compounds at 2×. Into a 96 well plate was added IL6/IL6R solution to achieve 6.6×10−4 mg/mL and 3.3×10−4 mg/mL respectively, this is 2× concentration. For this, primary EL6 stock (0.1 mg/mL) was diluted150-fold and IL6R stock (0.1 mg/mL) 300-fold to treat cells with final concentration of 6.6×10−4 mg/mL and 3.3×10−4 mg/mL respectively. 10 ml of Sample Diluent Concentrate 2 (2X)(Part #895891/DYC002)+10 ml ddH2O+200 ul of 100 mM activated Na3VO4 (aliquots at −20C)+20 ul of 10 mg/ml aprotinin (stock at 4C)+20 ul of 10 mg/ml leupeptin (aliquots at −20C)+200 ul PIC-protected from light. Lysis buffer containing 1% NP-40 Alternative, 20 mM Tris (pH 8.0), 137 mM NaCl, 10% glycerol, 2 mM EDTA, 1 mM activated sodium orthovanadate, 10 μg/mL Aprotinin, 10 μg/mL Leupeptin. Placed on ice. Removed the media from the cell plate and add 50 μL of DMEM/F12 without FBS. Then, added 50 μL of the compounds or positive control IL6/IL6R at 2× into the cell plate using the multichannel (FIG. 7). Allowed the treatment to take place for 10 minutes in the incubator at 37° C. and 5% CO2. Cells were lysed with 130 μL of ice-cold lysis buffer. Placed cells on ice for 15 min, then in the −80° C. overnight. Next, we prepared the ELISA plate by warming coating buffer to RT. 12 strips were coated with capture antibody. For this: 121 μL of 180 μg/mL of capture antibody (R&D DYC3407-2) was added into 21.48 mL of coating buffer. 100 μL of this solution was added to each well, covered with a lead and incubated at RT overnight and then conducted the ELISA assay using the manufacture outlined protocol. The cell lysate from the HTS was prepared using the AlphaLISA buffer to measure levels of p-AKT after compound treatment.

p-gp130 and p-Akt = assay: HN mimetic activity (p-gp130 and p-Akt); assay type: cell-based, human
From the text: as §1, §2
as §3, with “For this: 121 μL of 180 μg/mL of capture antibody (R&D DYC3407-2) was added into 21.48 mL of coating buffer. 100 μL of this solution was added to each well, covered with a lead and incubated at RT overnight and then conducted the ELISA assay using the manufacture outlined protocol. The cell lysate from the HTS was prepared using the AlphaLISA buffer to measure levels of p-AKT after compound treatment.” left out

p-gp130 = p-gp130 AlphaLISA in U87-MG cells; assay type: cell-based, human; conditions: 30 μM for 3 hours, FIG. 2D
Procedure: FIG. 2. Development of p-gp 130 and gp130 AlphaLISA assays (A) Evaluation of p-gp 130 and gp 130 levels in U87-MG and SH-SY5Y cells after treatment with compound 2 by immunoblotting. (B) Principle of AlphaLISA assay. (C) Data of developed gp-130 AlphaLISA assay. Analyte is recombinant gp130 (EC domain).
Eight different antibodies (more than 20 combinations) were tested in a course of p-gp130 and gp130 AlphaLISA development. The principle of the AlphaLISA assay is depicted in FIG. 2B. […] Lysate buffer composition and treatment conditions have been optimized.

p-AKT = p-AKT AlphaLISA in U87-MG cells; assay type: cell-based, human; set-up: dose or concentration left out as unconfirmed; conditions: FIG. 2D
From the text: as §1, §2
Into a 96 well plate was added 99 μL of warm DMEM/F12 without FBS, then 1 uL of compounds at 1 mM were loaded into the96 well plate. These generated the compounds at 2×. Into a 96 well plate was added IL6/IL6R solution to achieve 6.6×10−4 mg/mL and 3.3×10−4 mg/mL respectively, this is 2× concentration. For this, primary EL6 stock (0.1 mg/mL) was diluted150-fold and IL6R stock (0.1 mg/mL) 300-fold to treat cells with final concentration of 6.6×10−4 mg/mL and 3.3×10−4 mg/mL respectively. 10 ml of Sample Diluent Concentrate 2 (2X)(Part #895891/DYC002)+10 ml ddH2O+200 ul of 100 mM activated Na3VO4 (aliquots at −20C)+20 ul of 10 mg/ml aprotinin (stock at 4C)+20 ul of 10 mg/ml leupeptin (aliquots at −20C)+200 ul PIC-protected from light. […]

Row | Molecule | p-gp130 (p-Tyr) dose response activity (gp130 receptor) | HN mimetic activity (p-gp130 and p-Akt) | further results
1 | CCC(=O)Nc1ccc2nc(C)n(-c3cccc(Cl)c3)c(=O)c2c1 [DDL-813] | most potent showing submicromolar activity | – | –
2 | CC[C@H](C)[C@H](NC(=O)[C@H](CCC(=O)O)NC(=O)CNC(=O)[C@@H](N)[C@@H](C)O)C(=O)O [DDL-842, NH2-Thr-Gly-Glu-Ile-COOH] (H-TGEI-OH) | – | weak HN mimetic activity | –
3 | C#CCSC[C@H](N)C(=O)O [S-propargyl-cyctein (SPRC), S-propargyl-cyctein] | – | – | p-gp130 AlphaLISA signal (p-gp130): significant increaste; p-AKT AlphaLISA signal (p-AKT): significant increaste
4 | Cbz-Thr-Ser-NH2 [DDL-841] | – | increased HN mimetic activity | –
5 | H-TGEINLPVK-OH [DDL-815, NH2-Thr-Gly-Glu-Ile-Asn-Leu-Pro-Val-Lys-COOH] | – | weaker HN mimetic activity through lower p-gp130 and p-Akt | –
6 | H-TSEINLPVK-OH [DDL-814, NH2-Thr-Ser-Glu-Ile-Asn-Leu-Pro-Val-Lys-COOH] | good activity | – | activation of gp130 receptor / increase of p-gp130 (gp130 receptor): activate the gp130 receptor; activation of gp130 receptor / increase of p-gp130 (gp130 receptor; listed as P3): increased p-gp-130
